Here are results for one molecule from patent US20260345584A1, “METHODS AND PHARMACEUTICAL COMPOSITIONS FOR TREATING CHEMOTHERAPY-INDUCED PERIPHERAL NEUROPATHY WITH EG5 INHIBITORS” (UNIVERSITY OF MIAMI, priority 2023, published 2026).

Molecules are shown by their SMILES.

In this experiment the test system is skin gene expression. The experiment is described as follows: Human skin RNAseq of paclitaxel-treated CIPN patients. In kind it is in vivo. As to the method:
Neurological history, examination, and QLQ-CIPN20 quality of life questionnaire, which has been validated to detect the presence of CIPN (Postma et al., 2005, Eur J Cancer 41: 1135-1139), was completed in all subjects. Consent was given to obtain two skin punch biopsies of approximately 4 mm diameter. These were collected 10 cm proximal to the lateral malleolus on the distal leg as described previously (Engelstad et al., 2012, Neurology 79: 2187-2193). The biopsies were carried out under anesthesia following local injection of 2% lidocaine with epinephrine, using a sterile technique. In addition, three healthy volunteers of similar age and same gender (female) were recruited as controls. […] Sequence reads were trimmed to remove possible adapter sequences and nucleotides with poor quality using Trimmomatic v.0.36. The trimmed reads were mapped to the Homo sapiens GRCh38 reference genome available on ENSEMBL using the STAR aligner v.2.5.2b. The STAR aligner was a splice aligner that detects splice junctions and incorporates them to help align the entire read sequences. […] Unique gene hit counts were calculated by using featureCounts from the Subread package v.1.5.2. […] Only unique reads that fell within exon regions were counted. If a strand-specific library preparation was performed, the reads were strand-specifically counted. […]

Turning to `CC(=O)O[C@H]1C(=O)[C@@]2(C)[C@H]([C@H](OC(=O)c3ccccc3)[C@]3(O)C[C@H](OC(=O)[C@H](O)[C@@H](NC(=O)c4ccccc4)c4ccccc4)C(C)=C1C3(C)C)[C@]1(OC(C)=O)CO[C@@H]1C[C@@H]2O` [paclitaxel], the KIF11 expression entry (CIPN patients after paclitaxel vs controls) is recorded as “upregulated in all three patients”. In addition, the “NOX1 and CYBB expression” value (CIPN patients after paclitaxel vs healthy controls) is listed as “most highly upregulated genes”.
